Data as given in paper PMC11019635, “On-Resin Photochemical Decarboxylative Arylation of Peptides” (Organic Letters, 2023).
Starred links: 1 amine or outer side, 2 acyl side, 3 side chain; linkers in the order of their positions; H or OH if unused. Non-standard residues stand in square brackets, D forms with d. Residues, ends and D or L forms follow the SMILES beside them. X1 = O=C([C@H](Cc1ccc2c(c1)OC(F)(F)O2)N[*:1])[*:2]; Phe(4-CF3) = N[C@@H](Cc1ccc(C(F)(F)F)cc1)C(=O)O; X2 = N#CCc1ccc(C[C@H](N[*:1])C(=O)[*:2])cc1; Phe(4-CN) = N#Cc1ccc(C[C@H](N)C(=O)O)cc1

Target: PRMT5/MEP50 complex (Homo sapiens, UniProt O14744+Q9BQA1)
Assay: Competitive fluorescence polarization assay against a tracer peptide binding to the PRMT5/MEP50 complex
Conditions: competitive FP; for IC50: 200 nM PRMT5:MEP50 complex, 1 nM tracer peptide 50, 50 mM HEPES, 250 mM NaCl, 1 mM TCEP, 0.01% Tween 20, pH 8.0, 1 hour incubation, ex 485 nm / em 535 nm, four-parameter fit
From the text: Next, we used the method to perform a small SAR study on a peptide that we previously identified as an inhibitor of PRMT5 protein–protein interactions.[37] The peptide is derived from the PRMT5 binding protein RioK1 and contains a Phe that is important for high-affinity binding. We prepared a peptide with an Asp residue installed in its place, which was protected using the 2-phenylisopropyl group to avoid aspartimide formation during peptide extension that occurred while using the allyl group.[38] The batch was split, and each portion was reacted with a different Ar–Br to rapidly generate peptides with diverse Phe analogues (Figure 3C). The prepared peptides were then tested in a competitive fluorescence polarization assay against a tracer peptide binding to the PRMT5/MEP50 complex.[37] […]
h. Competitive Fluorescence Polarization assay
Evaluation of peptide 42-46 was performed similar to our previously described protocol.3 As tracer, we used peptide 50 from the same report. In brief, the peptides to be tested were serially diluted in buffer (50 mM HEPES, 250 mM NaCl, 1mM TCEP, and 0.01% (v/v) Tween 20, pH 8.0) in a black 384 wells plate in a total volume of 10 μl per well. Next, a mixture of PRMT5:MEP50 complex and tracer peptide 50 in the same buffer was added so that a final protein concentration of 200 nM and final tracer concentration of 1 nM was reached. The mixture was incubated for 1 hour and read on a Tecan Spark plate reader in fluorescence polarization mode set to an excitation wavelength of 485 nm and emission wavelength of 535 nm. Data was analyzed using Graphpad Prism version 9.2.0 and curves were fitted using nonlinear regression (log(inhibitor) vs. response – variable slope (four parameters)).

PRMT5/MEP50 complex, sequence (O14744 whole entry, species assumed): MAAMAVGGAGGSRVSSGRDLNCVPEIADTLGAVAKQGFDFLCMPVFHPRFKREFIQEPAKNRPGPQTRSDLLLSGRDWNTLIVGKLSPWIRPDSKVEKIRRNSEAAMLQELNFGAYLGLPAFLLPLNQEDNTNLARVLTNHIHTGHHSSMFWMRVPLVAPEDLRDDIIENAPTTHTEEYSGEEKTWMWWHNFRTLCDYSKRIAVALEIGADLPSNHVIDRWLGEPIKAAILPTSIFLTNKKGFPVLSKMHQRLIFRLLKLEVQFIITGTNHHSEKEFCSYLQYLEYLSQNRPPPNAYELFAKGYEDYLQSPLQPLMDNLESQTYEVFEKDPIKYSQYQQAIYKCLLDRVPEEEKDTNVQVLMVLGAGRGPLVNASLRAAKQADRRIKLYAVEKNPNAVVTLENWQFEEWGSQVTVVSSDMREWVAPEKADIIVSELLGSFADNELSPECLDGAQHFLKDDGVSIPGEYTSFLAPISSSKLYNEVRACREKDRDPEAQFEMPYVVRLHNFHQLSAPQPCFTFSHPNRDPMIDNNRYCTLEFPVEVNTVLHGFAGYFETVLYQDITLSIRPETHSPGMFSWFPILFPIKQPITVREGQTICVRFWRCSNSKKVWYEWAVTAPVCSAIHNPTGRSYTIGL
PRMT5/MEP50 complex, sequence (Q9BQA1 whole entry partner, species assumed): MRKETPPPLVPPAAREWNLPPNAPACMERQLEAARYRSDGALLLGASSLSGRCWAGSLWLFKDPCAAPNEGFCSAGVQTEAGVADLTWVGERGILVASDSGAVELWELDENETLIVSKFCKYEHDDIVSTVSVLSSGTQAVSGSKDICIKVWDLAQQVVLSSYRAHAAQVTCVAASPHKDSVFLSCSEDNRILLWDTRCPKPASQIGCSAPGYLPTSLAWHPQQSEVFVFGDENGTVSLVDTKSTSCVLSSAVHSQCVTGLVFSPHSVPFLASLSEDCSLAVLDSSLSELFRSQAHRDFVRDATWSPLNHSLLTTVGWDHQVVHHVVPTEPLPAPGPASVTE

Compound	fold improvement in IC50 in comparison to the wild-type peptide 46 (PRMT5/MEP50 complex, relative to peptide 46) [fold]	IC50 [µM]
CC(=O)N[C@H](C(=O)N1CCC[C@H]1C(=O)NCC(=O)N[C@@H](CCC(N)=O)C(=O)N[C@@H](Cc1ccc(C#N)cc1)C(=O)N[C@@H](CC(=O)O)C(=O)N[C@@H](CC(=O)O)C(=O)N[C@@H](C)C(=O)N[C@@H](CC(=O)O)C(N)=O)C(C)C [compound 42] (Ac-VPGQ[Phe(4-CN)]DDAD-NH2)	3	0.56 ± 0.15
CC(=O)N[C@H](C(=O)N1CCC[C@H]1C(=O)NCC(=O)N[C@@H](CCC(N)=O)C(=O)N[C@@H](Cc1ccc2c(c1)OC(F)(F)O2)C(=O)N[C@@H](CC(=O)O)C(=O)N[C@@H](CC(=O)O)C(=O)N[C@@H](C)C(=O)N[C@@H](CC(=O)O)C(N)=O)C(C)C [compound 45] (Ac-VPGQ[X1]DDAD-NH2)		17.1 ± 8.05

The remaining compounds from weak to strong by IC50, led by results:

fold improvement in IC50 in comparison to the wild-type peptide 46 (PRMT5/MEP50 complex, relative to peptide 46) [fold]	IC50 [µM]	Compound
	14.6 ± 6.37	CC(=O)N[C@H](C(=O)N1CCC[C@H]1C(=O)NCC(=O)N[C@@H](CCC(N)=O)C(=O)N[C@@H](Cc1ccc(CC#N)cc1)C(=O)N[C@@H](CC(=O)O)C(=O)N[C@@H](CC(=O)O)C(=O)N[C@@H](C)C(=O)N[C@@H](CC(=O)O)C(N)=O)C(C)C [compound 43] (Ac-VPGQ[X2]DDAD-NH2)
	6.74 ± 3.23	CC(=O)N[C@H](C(=O)N1CCC[C@H]1C(=O)NCC(=O)N[C@@H](CCC(N)=O)C(=O)N[C@@H](Cc1ccc(C(F)(F)F)cc1)C(=O)N[C@@H](CC(=O)O)C(=O)N[C@@H](CC(=O)O)C(=O)N[C@@H](C)C(=O)N[C@@H](CC(=O)O)C(N)=O)C(C)C [compound 44] (Ac-VPGQ[Phe(4-CF3)]DDAD-NH2)
	1.71 ± 0.59	Ac-VPGQFDDAD-NH2 [compound 46, reference compound]
